The values that follow come from patent publication US4587359A, “Amine-carbamoylborane adducts” (The United States of America as represented by the Secrtary …, priority 1984, dated 1986).

SMILES strings stand for the structures. Where two headings read alike, the source gives them in different places.

The subject of data set [1] is tumor. Particulars: in mice; cited from earlier work.
The conditions of data set [2]: in mice; cited from earlier work.
For data set [3] the following is noted: animal model studies; cited from earlier work.
Data set [4] can be described thus: Thermal stability / vacuum distillation. It counts as physicochemical. The following applies: for thermal stability: higher temperature (>100° C.); for decomposition when subjected to vacuum distillation: oil-bath temperatures >100° C. On the procedure:
The parent compound 1, trimethylamine-(ethylcarbamoyl)borane was prepared as previously described in B. F. Spielvogel et al., J. Am. Chem. Soc., 98 p. 5702 (1976) and I. H. Hall et al., J. Pharm. Sci., 68, p. 685 (1979) by refluxing (under dry N2) a solution of Me3 N.BH2 CN in CH2 Cl2 with 2 equivalents of triethyloxonium tetrafluoroborate for 24 hours. The compounds Me3 N.BH2 CN and triethyloxonium tetrafluoroborate are referred to in P. Wisian-Neilson et al., Inorg. Chem. 17, p. 2327 (1978) and H. Meerwein, Org. Synth., 46, p. 113 (1966), respectively. The resulting ethylnitrilium salt (not isolated) was hydrolyzed at 0° C. with 1N NaOH until basic and finally purified by vacuum distillation, giving a 75% yield. Dimethylamine-(ethylcarbamoyl)borane was made from 1 by a (CH3)2NH-exchange reaction in a pressure-glass vessel at room temperature for 8 days, and ca. 80% conversion (by ^1 H NMR) was obtained. Longer reaction periods (2-3 weeks) gave similar results. Amide 2 is readily purified by washing a CH2 Cl2 solution of the crude mixture with a small quantity of water whereby 1 is removed. The bulk CH2 Cl2 solution containing the product was dried, and rotary evaporation of the solvent gave 78% yield. Finally, the product was distilled under reduced pressure to get an analytical sample. […] The methylamine-(ethylcarbamoyl)borane and ammonia-(ethylcarbamoyl)borane were similarly prepared from 1 by exchange reactions with CH3 NH2 and NH3, respectively, in a glass pressure reaction vessel at room temperature for 1 week. The crude amide was purified by recrystallization from CH2 Cl2 /pentane, giving a 65% yield, whereas the ammonia analogue was recrystallized from distilled water, giving a 60% yield.

For data set [5] the following is noted: animal model studies; cited from earlier work. The source holds these as a separate data set.
Data set [6] relates to Ehrlich ascites cells. As to the kind of experiment: Ehrlich Ascites tumor screen for antineoplastic activity. The format is in vivo. The following applies: 20 mg/kg/day intraperitoneally, days 1-9; CF male mice; day 10. On the procedure:
Use of compounds according to this invention in Ehrlich Ascites tumor screens for antineoplastic activity has been investigated.
CF male mice (~25 g) were inoculated intraperitoneally on day 0 with 2×10^6 Ehrlich ascites cells. Compositions containing compounds of this invention were prepared in 0.05% polysorbate 80 by homogenation and injected intraperitoneally on days 1-9 at 20 mg/kg/day. On day 10, the mice were sacrificed and the cells from the peritoneal cavity harvested. The total ascites tumor and packed cell (ascrit) volumes were determined and used to calculate the percent inhibition according to the procedure described in C. Piantadosi et al., J. Pharm. Sci., 58, p. 821 (1969). […] Mercaptopurine and mephalan were used as positive controls in the screen. Other pharmaceutically acceptable carriers, diluents, adjuvants or dosages are readily ascertainable by the skilled artisan.

Data set [7] can be described thus: Toxicity in BALB/C mice. It counts as in vivo.
Data set [8] can be described thus: Solubility.
For data set [9], the system named is Harding-Passey melanorna. As to the kind of experiment: Tissue distribution study of boron (boron neutron capture therapy). The following applies: for Boron uptake, blood / Boron uptake, brain / Boron uptake, tumor: single saline i.p. injection, 40 μg boron per gram body weight. The format is in vivo, BALB/c mice. On the procedure: (§1) In a tissue distribution study relating to treatment of tumor tissue in an animal by boron neutron capture therapy, a representative compound of this invention MeNH2.BH2 C(O)NHEt was administered in a single saline intraperitoneal injection sufficient to provide 40 μg boron per gram body weight to BALB/c mice carrying Harding-Passey melanorna.

Assay in data set [10]: as above
The format is in vivo, BALB/c mice. The following applies: mouse, ip, 40 mg/kg, single saline i.p. injection, 40 μg boron per gram body weight; for concentration at 1 h: 1 hr post injection. On the procedure: as §1

The mark [11] stands for this setting: 1 hr post injection, 40 mg/kg, 60 min.

As to `C[N+](C)(C)[BH2-]C(=O)O` [Me3 N.BH2 COOH], the antitumor activity entry in [1] is given as “significant”. Moreover, the antihyperlipidemic activity entry in data set [2] is recorded as “significant”.
As for `CCNC(=O)[BH2-][N+](C)(C)C` [Trimethylamine-(ethylcarbamoyl)borane, Trimethylamine-(Ethylcarbamoyl)borane], the antiinflammatory activity entry in data set [3] is “significant”. In [1], the antitumor activity entry was “significant”. Moreover, in data set [4], the thermal stability result is reported as “thermally unstable” and the “decomposition when subjected to vacuum distillation” value is listed as “considerable decomposition”. Also, the antiarthritic activity entry in data set [5] was “significant”. In addition, the antihyperlipidemic activity entry in data set [2] is given as “significant”.
With `CCNC(=O)[BH2-][NH2+]C` [MeNH2.BH2 C(O)NHEt, Methylamine-(ethylcarbamoyl)borane], in [6], the “percent inhibition (ascites tumor and packed cell volumes)” value came to 91%. In addition, the toxicity result in data set [7] was “not toxic”. Further, the solubility result in [8] is on record as “good”. The “Boron uptake, blood” value in data set [9] (setting [11]) is 54.4 μg B per gram tissue; in data set [9] (12 hr post injection), 0 μg B per gram tissue. In addition, the “Boron uptake, brain” value is 39.8 μg B per gram tissue in data set [9] (setting [11]) and 0 μg B per gram tissue in data set [9] (12 hr post injection). For the same molecule, the “Boron uptake, tumor” value in data set [9] (setting [11]) is 48.7 μg B per gram tissue; in data set [9] (12 hr post injection, 40 mg/kg, 720 min), 2.8 μg B per gram tissue. Also, the “uptake for conventional therapy, measured against the standard in clinical use Na2 B12 H11 SH” value in [9] (in words) is recorded as “inadequate”. Moreover, in [9] (in words, BALB/c mice), the “concentration of the boron-containing compound in the tumor tissue” value is on record as “some preferential differential concentration”. In addition, the concentration at 1 h in [10] (blood, read-out: Boron uptake, blood) came out at 54800 ng/g; in data set [10] (brain, read-out: Boron uptake, brain), 45300 ng/g; in [10] (tumor, read-out: Boron uptake, tumor), 51300 ng/g. For the same molecule, in data set [10] (tumor, 12 hr post injection, read-out: Boron uptake, tumor), the concentration at 12 h turned out to be 3800 ng/g.
Take `CCNC(=O)[BH2-][NH+](C)C` [Me2 NH.BH2 C(O)NHEt, Dimethylamine-(Ethylcarbamoyl)borane]: the “percent inhibition (ascites tumor and packed cell volumes)” value in data set [6] is on record as 72.2%. Also, in data set [4], the thermal stability result is “thermally unstable” and the “decomposition when subjected to vacuum distillation” value is reported as “considerable decomposition”.
